In patent publication US12257251B2, “Use of FAK inhibitor in preparation of drug for treating tumors having NRAS mutation” (INXMED (NANJING) CO., LTD., priority 2019, dated 2025):

Columns and labels:
[1] = test system: HMVII (NRAS^Q61K) melanoma cell line; assay: HMVII CDX model (melanoma with an NRAS mutation): tumor growth; format: in vivo, mouse; details: for Tumor growth compared to the control group (in words): HMVII model, daily treatment; for Mean TGI: daily, based on relative tumor volume on day 14
Method: 1.1. Test compound: BI853520, which was synthesized according to the method in the patent WO2010058032. BI853520 was formulated with 0.5% hydroxyethyl cellulose (Ashland).
1.2. Cells: The melanoma cell line GAK was purchased from JCRB Cell Bank, and HMVII cells were purchased from Sigma. GAK originated in the inguinal lymph nodes of patients with vaginal melanoma, whereas HMVII originated in primary vaginal melanoma. GAK and HMVII cells were cultured in tissue culture flasks containing 5% CO2 at 37° C. The media were Ham's F12 containing 10% heat-inactivated FBS and Ham's F10 containing 15% FBS, respectively. All media were supplemented with 100 U/mL penicillin, […] streptomycin, and 2 mM GlutaMAX. All cell culture reagents were purchased from GIBCO.
Both HMVII and GAK cell lines carried an NRAS mutation at the Q61 position. HMVII (NRAS^Q61K) and GAK (NRAS^Q61L)
1.3. Mice: 4-week-old female balb/c nude mice (purchased from Beijing Vital River Laboratory Animal Technology Co., Ltd.). After arriving in the animal room, the mice were allowed to acclimate to the new environment for at least 2 weeks before being used for assay. The animals were housed under standard conditions (temperature: 21.5±1.5° C., humidity: 55±10%). A Standard diet and autoclaved tap water were provided ad libitum. All animal care and experimental procedures were performed in accordance with the animal care ethics guidelines approved by the Medical Ethics Committee of Beijing Cancer Hospital and Research Institute.
To establish subcutaneous tumors, HMVII and GAK cells were harvested by trypsinization, centrifuged, washed and resuspended in ice-cold PBS+5% FCS. Then 100 l of the cell suspension containing 5×10^6 cells was injected subcutaneously into the right flank of nude mice (1 site per mouse). When tumors were well established and reached a median volume of approximately 400-600 mm^3, mice were randomly assigned to the treatment group and the control group.
1.5. Administration: BI 853520 was formulated in 0.5% hydroxyethyl cellulose, which was intragastrically administered through gavage needle every day, and the dosage was 10 mL/Kg body weight.
Tumor diameters were measured twice a week with calipers. The volume [mm^3] of each tumor was calculated according to the equation “tumor volume=length×diameter^2×π/6”. Animals were sacrificed at the end of the study (approximately two weeks after the start of treatment). During the study, animals with necrotic tumors or tumors exceeding 2000 mm^3 in size were sacrificed for ethical reasons.
Tumor volumes were statistically assessed at the end of the assay. For tumor volume, relative values were used.
The number of observations, and the median, minimum and maximum tumor volumes were calculated. For a quick overview of possible treatment effects, the following metrics were calculated: • Relative tumor volume: (T/C)
[formula] • TGI from day 1 to day d: TGI=100×[(Cd−C1)−(Td−T1)]/(Cd−C1) • wherein, C1, T1=mean relative tumor volume in control and treatment groups at the start of the assay (day 1); • Cd, Td=mean relative tumor volume in control and treatment groups at the end of the assay (day d).
Statistical evaluation was performed using the Student's t-test function in Microsoft Excel, using two-tailed distribution and two-sample equal variance type.
The significance level was fixed at α=5%. […]

[2] = in vivo

In the case of `COc1cc(C(=O)NC2CCN(C)CC2)c(F)cc1Nc1ncc(C(F)(F)F)c(Oc2cccc3c2C(=O)N(C)C3)n1` [BI853520], the “Tumor growth compared to the control group (in words)” value [1] is reported as “inhibit tumor growth”, the “Tumor growth compared to the control group (in words)” value ([1]; listed as BI 853520) is reported as “delayed tumor growth” and the Mean tumor volume ([1]; HMVII, 50 mg/kg (1st week), 25 mg/kg (2nd week), daily gavage, day 14) is reported as 671 ± 606 mm^3. For the same compound, the “Mean TGI” value ([1]; HMVII, 50 mg/kg (1st week), 25 mg/kg (2nd week)) was 60%, the “Mean TGI” value ([1]; HMVII, 50 mg/kg (1st week), 25 mg/kg (2nd week), listed as BI 853520) was 60% and the “Highest daily dose without limiting toxicity” value [2] was 100 mg/kg.
